According to patent US10912767B2, “Anthracycline prodrugs and methods of making and using the same” (THE REGENTS OF THE UNIVERSITY OF COLORADO, priority 2015, dated 2021):
Where two headings read alike, the source gives them in different places.

How the values were obtained:
[1] = tested on: MDA-MB-231 breast cancer cells; assay: Tumor cell growth inhibition, crystal violet (Example 2); assay type: cell-based, human; conditions: for IC50: read-out: IC50
From the text: In order to investigate the photolysis of the drugs in a system amenable to cell culture use, a custom UV irradiation apparatus was constructed, consisting of 3 small blacklight fluorescent bulbs (Southern New England Ultraviolet Co., λmax=350 nm) set between two ring stands and suspended at a height of 11.5 cm. The bulbs' housing was reflective aluminum so as to direct as much UV irradiation as possible downward toward the plate. Upon installation in sterile cell culture hood, the power of the system was measured at approximately 6-7 mW using a Scientech laser power meter. Prior to experimentation, the hood and irradiation apparatus was sterilized with 254 nm germicidal UV irradiation overnight. Using this setup, 100 μM of 4,5-dimethoxy-2-nitrobenyl alcohol (DMNA), photodoxazolidine R═H, and glucose-PEG-photodoxazoldine were irradiated in individual wells of a 24-well plate. Initially, 50 μL of a DMSO stock was diluted with 950 μL of PBS and aliquots of 50 μL were removed at various times (0-180 min), mixing by pipetting each time. The timepoints were analyzed by HPLC (method 2) and plotted as fractional conversion versus time. […] Therefore, a second experiment was performed in which the PBS was replaced with 1:1 acetonitrile:water. With this system of 5% DMSO/47.5% acetonitrile/47.5% water, no visible precipitation was produced over the course of the reaction.
The ovarian carcinoma line NCl/ADR-RES (ADR) was grown in high-glucose Dulbecco's Modified Eagle Medium (DMEM) supplemented with 10% fetal bovine serum (FBS), 200 units/mL of penicillin and 200 μg/mL of streptomycin. The breast carcinoma line MDA-MB-231 was cultured in low-glucose DMEM with the same additives. Both lines were maintained in a humidified incubator with 5% CO2/95% air at 37° C. UV irradiations were performed with the apparatus described above.
Growth inhibition experiments were performed by seeding cells into 96-well plates or 24-well plates at densities of 1000-1500 cells per well or 8000 cells per well, respectively, and allowing the cells to adhere overnight. The media was then replaced with a range of aqueous concentrations of the drug in question and allowed to incubate at 37° C. with the cells for a span of time (Inc1) which ranged from 1 min to 48 hours. Irradiation was performed at room temperature with the plate's lid removed and ranged from 1 to 30 min. In some experiments, the drug solution was removed following Inc1 and irradiated in clean media or PBS. Following irradiation, the cells were placed back into the 37° C. incubator for a second period of incubation (Inc2), which varied between 1 min and 24 h, prior to replacement with fresh media. Plates which received no irradiation but identical treatment otherwise were done in parallel. The cells were then grown until the no-drug control wells reached approximately 80% confluence or 5 days, whichever was shorter. […] The cells were fixed with 5% formalin in PBS, stained with crystal violet, washed with tap water, and air-dried. The stain was resolubilized in 50% isopropyl alcohol, 50% H2O containing 2% (w/v) SDS. The staining density was read on a multiwell plate reader at 588-600 nm. Percentage cell density was calculated relative to the irradiated no-drug control wells, plotted as a function of drug concentration, and fit using non-linear least squared analysis with a variable-slope dose response model in GraphPad Prism 5.0 software.
Although the introduction of a long-pass glass filter between the light source and the plate alleviated this effect to a small extent, a maximum irradiation time of 10 min was settled upon. […] Since a media change at that point would remove the cells as well, the re-adherence of the cell population was accomplished by the addition of a large volume (200 μL) of complete media following Inc2, and overnight incubation. Then, a full media change was done to remove the drug. […]

[2] = Quantum yield of photocleavage, He-Cd laser 325 nm, HPLC; assay type: physicochemical; conditions: 325 nm
Experimental: Initially, measurement of the quantum yield of photodoxazolidine R═H was done in a fully-absorbing solution of photoactive drug in a solution of 90% dimethylacetamide (DMA), 10% water in a 1×1 cm quartz cuvette equipped with a small magnetic stir bar. A stock of photodoxazolidine in DMA was diluted in 9:1 DMA:H2O to a final concentration of 373 μM in a final volume of 3.380 mL. […] The cuvette was placed into the path of an Omnichrome He-Cd laser (single-window power: 10.75 mW at 325 nm using a Scientech laser power meter). The solution was mixed by the stir bar, which was agitated with a magnetic stir plate placed vertically next to the cuvette. Aliquots of 20 μL were removed at times between 0 and 62 min of irradiation and those aliquots were analyzed by HPLC (method 2) for the ratio of dox to photodoxazolidine. The quantum yield was calculated from the ratio of molecules of doxorubicin (dox) formed to photons absorbed.
To allow for better comparison between the quantum yield of photocleavage of photodoxazolidine with the quantum yield for azido-PEG-photodoxazolidine, the measurement was retaken with 50% acetonitrile in water as a solvent. […] Photodoxazolidine (in DMF) was diluted with 30 mL of 50% acetonitrile to a final concentration of 104 μM. The solution was confirmed to be fully absorbing by monitoring the laser power exiting the cell throughout the course of the experiment, which never deviated from 0 mW. As above, the contents of the cell were mixed with a small magnetic stir bar. Aliquots of 50 μL were removed at various times and analyzed as described above. The calculated quantum yield in this solvent system was identical to that measured from the […] system used above.
Concentration of azido-PEG-photodoxazolidine was determined via absorbance (λ=480 nm, ε=11500 M^−1 cm^−1). A sample ([…]) was dissolved in 1 mL of ACN and transferred to a cuvette. A 12.4 mW Omnichrome HeCd was used to irradiate the solution for 30 min at 325 nm. Aliquots of 10 μL were collected at different times and analyzed by HPLC to determine the % Dox in relation to that of azido-PEG-photodoxazolidine. In calculating quantum yield: power (without cuvette)=12.4 mW, (with cuvette)=10.7 mW, incident light=11.55 mW; energy=0.462 J, 7.55×1017 photons; t=40 sec when % Dox=9.2. Experiments were performed in triplicate.
Azido-PEG-photodoxazolidine was irradiated with a 12.4 mW monochromatic laser at 325 nm for 30 min. Aliquots were collected throughout to determine the amount of azido-PEG-photodoxazolidine in relation to released doxorubicin, which was quantified by HPLC. […] The average of triplicate quantum yield experiments was 0.025. This value is in the low end of the quantum yield range, yet is beneficial because it signifies that UV must be applied for longer durations prior to release of the cytotoxic agent. This makes administration of this photo-activated prodrug safer, and its synthesis more practical.

In the case of `COc1cc(COC(=O)N2COC3C(C)OC(OC4CC(O)(C(=O)CO)Cc5c(O)c6c(c(O)c54)C(=O)c4c(OC)cccc4C6=O)CC32)c([N+](=O)[O-])cc1OC` (stereo not drawn) [Photodoxazolidine], the “fold drop of IC50 on near UV irradiation” value ([1]; MDA-MB-231, 10 min UV vs alone) is reported as “approximately 22 fold”, the IC50 ([1]; MDA-MB-231, +UV 10 min, near UV 350 nm) is reported as 73 nM and the IC50 ([1]; MDA-MB-231, prodrug alone, no UV, listed as Photodoxaz) is reported as 1600 ± 120 nM. The IC50 ([1]; MDA-MB-231, prodrug alone, no UV, listed as photodoxazolidine) was about 1600 nM, the quantum yield ([2]; 50% acetonitrile in water, vs first solvent system) was “identical” and the quantum yield ([2]; 90% dimethylacetamide, 10% water) was 0.002.
